# In ChEMBL document CHEMBL2021761, “Imidazonaphthyridine systems (part 2): Functionalization of the phenyl ring linked to the pyridine pharmacophore and its replacement by a pyridinone ring produces intriguing differences in cytocidal activity” (Eur J Med Chem, 2012):
# Calls of active or inactive are those of the source. The rule behind the calls is not given here.
# Columns and labels:
# [1] = tested on: HT-1080; assay: Cytocidal activity against human HT1080 cells assessed as growth inhibition after 48 hrs by SRB assay; format: functional; settings: HT-1080, 48 h
# [2] = tested on: M21; assay: Cytocidal activity against human M21 cells assessed as growth inhibition after 48 hrs by SRB assay; format: functional; settings: M21, 48 h
# [3] = tested on: HT-29; assay: Cytocidal activity against human HT-29 cells assessed as growth inhibition after 48 hrs by SRB assay; format: functional; settings: HT-29, 48 h
# [4] = tested on: MCF7; assay: Cytocidal activity against human MCF7 cells assessed as growth inhibition after 48 hrs by SRB assay; format: functional; settings: MCF7, 48 h
# [5] = target: T1, DNA topoisomerase 1 (Homo sapiens) (UniProt P11387); assay: Inhibition of recombinant human topoisomerase 1-mediated unwinding of supercoiled plasmid DNA assessed as DNA intercalation at 100 to 200 uM after 2 hrs by gel electrophoresis
# T1 sequence (whole entry): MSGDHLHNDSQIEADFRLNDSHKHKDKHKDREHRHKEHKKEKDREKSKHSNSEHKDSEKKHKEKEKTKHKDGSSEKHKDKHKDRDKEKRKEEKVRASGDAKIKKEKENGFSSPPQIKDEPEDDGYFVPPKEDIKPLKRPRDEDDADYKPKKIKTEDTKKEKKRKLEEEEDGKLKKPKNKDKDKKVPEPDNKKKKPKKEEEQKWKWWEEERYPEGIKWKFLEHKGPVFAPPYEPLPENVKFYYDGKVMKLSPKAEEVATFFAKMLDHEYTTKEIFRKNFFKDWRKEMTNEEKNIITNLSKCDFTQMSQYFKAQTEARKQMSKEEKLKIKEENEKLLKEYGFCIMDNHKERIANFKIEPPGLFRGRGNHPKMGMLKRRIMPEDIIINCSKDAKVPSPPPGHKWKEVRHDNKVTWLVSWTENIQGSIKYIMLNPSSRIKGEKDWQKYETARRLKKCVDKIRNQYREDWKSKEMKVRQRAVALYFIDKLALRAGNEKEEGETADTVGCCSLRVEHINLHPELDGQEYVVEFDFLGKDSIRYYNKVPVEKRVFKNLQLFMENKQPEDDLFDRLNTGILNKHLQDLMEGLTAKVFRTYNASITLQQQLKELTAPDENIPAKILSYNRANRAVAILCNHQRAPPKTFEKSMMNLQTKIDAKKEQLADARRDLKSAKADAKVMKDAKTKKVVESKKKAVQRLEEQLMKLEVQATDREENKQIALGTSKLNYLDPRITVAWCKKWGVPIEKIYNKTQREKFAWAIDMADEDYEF
# [6] = target: T1, DNA topoisomerase 1 (Homo sapiens); assay: Inhibition of recombinant human topoisomerase 1-mediated unwinding of supercoiled plasmid DNA assessed as DNA intercalation at 50 uM after 2 hrs by gel electrophoresis
# [7] = target: T1, DNA topoisomerase 1 (Homo sapiens); assay: Inhibition of recombinant human topoisomerase 1-mediated unwinding of supercoiled plasmid DNA assessed as DNA intercalation at 25 uM after 2 hrs by gel electrophoresis
# [8] = target: T1, DNA topoisomerase 1 (Homo sapiens); assay: Inhibition of recombinant human topoisomerase 1-mediated unwinding of supercoiled plasmid DNA assessed as formation of nicked open circular DNA at 12.5 to 100 uM after 2 hrs by gel electrophoresis
# [9] = target: T1, DNA topoisomerase 1 (Homo sapiens); assay: Inhibition of recombinant human topoisomerase 1-mediated unwinding of supercoiled plasmid DNA assessed as DNA intercalation at 12.5 to 100 uM by gel electrophoresis; settings: TDE = time-dependent effect
# [10] = Dissociation constant, pKa of the compound; format: physicochemical
# [11] = target: T1, DNA topoisomerase 1 (Homo sapiens); assay: Inhibition of recombinant human topoisomerase 1-mediated unwinding of supercoiled plasmid DNA assessed as DNA intercalation after 2 hrs by gel electrophoresis
compound,measurement,setting,value
CCOC(=O)c1c[nH]c2ccn3cc(-c4cccc(OC)c4)nc3c2c1=O,GI50,[1],> 100 µM
same,GI50,[2],93.4 µM
same,GI50,[3],71.1 µM
same,GI50,[4],98 µM
CCOC(=O)c1c[nH]c2ccn3ccnc3c2c1=O,inhibition,[5],inactive
same,GI50,[1],0.3 µM
same,GI50,[2],0.8 µM
same,inhibition,[6],inactive
same,GI50,[3],4.5 µM
same,inhibition,[7],inactive
same,GI50,[4],0.3 µM
COc1cc(-c2ccc3ccn4ccnc4c3n2)cc(OC)c1OC,inhibition,[8],inactive
same,GI50,[1],29.2 µM
same,GI50,[2],24.5 µM
same,inhibition,[6],Active
same,GI50,[3],27.8 µM
same,inhibition,[7],Active
same,GI50,[4],30.7 µM
same,inhibition,[9],tde
COc1ccc(-c2c[nH]c3c(ccn4ccnc34)c2=O)cc1,GI50,[1],> 100 µM
same,GI50,[2],> 100 µM
same,GI50,[3],> 100 µM
same,GI50,[4],> 100 µM
Cc1ccc2ccn3ccnc3c2n1,pKa,[10],4.23
CCOC(=O)c1c[nH]c2ccn3cc(-c4ccccc4)nc3c2c1=O,GI50,[1],10.4 µM
same,GI50,[2],13.4 µM
same,GI50,[3],21.6 µM
same,GI50,[4],20.5 µM
CCOC(=O)c1c[nH]c2c(ccn3cc(-c4cccc(OC)c4)nc23)c1=O,GI50,[1],> 100 µM
same,GI50,[2],> 100 µM
same,GI50,[3],> 100 µM
same,GI50,[4],> 100 µM
COc1cc(-c2c[nH]c3ccn4ccnc4c3c2=O)cc(OC)c1OC,GI50,[1],92.5 µM
same,GI50,[2],82.7 µM
same,GI50,[3],62.7 µM
same,GI50,[4],71.9 µM
c1cn2ccc3cc4c(nc3c2n1)CCCC4,pKa,[10],4.59
c1ccc(-c2ccc3ccn4ccnc4c3n2)cc1,inhibition,[8],inactive
same,GI50,[1],54.7 µM
same,inhibition,[6],Active
same,pKa,[10],1.96
same,inhibition,[7],Active
same,inhibition,[9],tde
COc1ccc(-c2ccc3ccn4ccnc4c3n2)cc1,GI50,[1],5.2 µM
same,GI50,[2],5 µM
same,inhibition,[6],Active
same,GI50,[3],5.1 µM
same,inhibition,[7],Active
same,GI50,[4],6.9 µM
CCOC(=O)c1c[nH]c2c(ccn3cc(-c4ccccc4)nc23)c1=O,GI50,[1],> 100 µM
same,GI50,[2],> 100 µM
same,GI50,[3],> 100 µM
same,GI50,[4],> 100 µM
COc1ccc(-c2c[nH]c3ccn4ccnc4c3c2=O)cc1,inhibition,[5],inactive
same,GI50,[1],1.2 µM
same,GI50,[2],1.3 µM
same,inhibition,[6],inactive
same,GI50,[3],8.6 µM
same,inhibition,[7],inactive
same,GI50,[4],1.1 µM
Cc1ccc(-c2ccc3ccn4ccnc4c3n2)cc1,inhibition,[5],inactive
same,GI50,[1],10.7 µM
same,GI50,[2],6.4 µM
same,inhibition,[6],inactive
same,GI50,[3],5.1 µM
same,inhibition,[7],inactive
same,GI50,[4],7.6 µM
O=c1c(-c2ccccc2)c[nH]c2ccn3ccnc3c12,GI50,[1],19.7 µM
same,GI50,[2],40.7 µM
same,GI50,[3],34.2 µM
same,GI50,[4],20 µM
CCOC(=O)c1c[nH]c2c(ccn3ccnc23)c1=O,GI50,[1],> 100 µM
same,GI50,[2],> 100 µM
same,GI50,[3],> 100 µM
same,GI50,[4],> 100 µM
c1ccc2c(c1)CCc1cc3ccn4ccnc4c3nc1-2,pKa,[10],2.43
CCOC(=O)c1c[nH]c2c(ccn3cc(C(C)C)nc23)c1=O,GI50,[1],> 100 µM
same,GI50,[2],> 100 µM
same,GI50,[3],> 100 µM
same,GI50,[4],> 100 µM
O=C1CCCc2nc3c(ccn4ccnc34)cc21,pKa,[10],2
Clc1ccc(-c2ccc3ccn4ccnc4c3n2)cc1,GI50,[1],6.9 µM
same,GI50,[2],4.7 µM
same,inhibition,[6],Active
same,GI50,[3],3.4 µM
same,inhibition,[7],Active
same,GI50,[4],7.1 µM
COc1cc(NS(C)(=O)=O)ccc1Nc1c2ccccc2nc2ccccc12 [AMSACRINE],GI50,[1],1.6 µM
same,GI50,[4],5.6 µM
c1ccc2cc3nc4c(ccn5ccnc45)cc3cc2c1,pKa,[10],2.43
Cc1cc2ccn3ccnc3c2nc1C,pKa,[10],4.63
CCOC(=O)c1c[nH]c2ccn3cc(C)nc3c2c1=O,GI50,[1],72.9 µM
same,GI50,[2],88.5 µM
same,GI50,[3],63.2 µM
same,GI50,[4],98.5 µM
CCBr,inhibition,[11],Active
O=c1c(-c2ccccc2)c[nH]c2c1ccn1ccnc21,GI50,[1],> 100 µM
same,GI50,[2],> 100 µM
same,GI50,[3],> 100 µM
same,GI50,[4],> 100 µM
CCOC(=O)c1c[nH]c2c(ccn3cc(C)nc23)c1=O,GI50,[1],> 100 µM
same,GI50,[2],> 100 µM
same,GI50,[3],> 100 µM
same,GI50,[4],> 100 µM
c1ccc2c(c1)CCc1nc3c(ccn4ccnc34)cc1-2,pKa,[10],3.53
CCOC(=O)c1c[nH]c2ccn3cc(C(C)C)nc3c2c1=O,GI50,[1],22 µM
same,GI50,[2],26.9 µM
same,GI50,[3],43.7 µM
same,GI50,[4],37.3 µM
COc1cc(-c2c[nH]c3c(ccn4ccnc34)c2=O)cc(OC)c1OC,GI50,[1],> 100 µM
same,GI50,[2],> 100 µM
same,GI50,[3],> 100 µM
same,GI50,[4],> 100 µM
CCOC(=O)C1CCc2nc3c(ccn4ccnc34)cc2C1 (centres undefined),pKa,[10],4.08
